# Measured values published in patent US20200215085A1, “Method to Abate Acute Airway Hypersensitivity and Asthma Attacks” (UTI Limited Partnership, priority 2017, published 2020).
# “Also recorded” adds a separate entry of the source.
# How the values were obtained:
# carotid body [1] = test: en bloc perfused carotid body preparation: carotid sinus nerve response to LPA; design: species or system Sprague-Dawley rats; settings: for reduction of 5 μM LPA-mediated carotid sinus nerve excitation: 5 μM LPA (18:1), AMG9810 10 μM, BrP-LPA 1.5 μM, Ki16425 5 μM, mean±sem; for effect of LPAr blockade on carotid sinus nerve response to LPA (5 μM): BrP-LPA 1.5 μM or Ki16425 5 μM, FIGS. 2A-2B; for en bloc carotid body's response to LPA blocked: en bloc preparation
# OVA-sensitized rats = test: bradykinin-induced bronchoconstriction (RL, Flexivent) in anesthetized ovalbumin-sensitized rats; format: in vivo, Brown Norway rats; settings: nebulized 0.4 mg bradykinin at 1, 10, 20 min, antagonists iv (BrP-LPA 3 mg/kg, Ki16425 5 mg/kg, AMG9810 10 μM/kg)
# Experimental: In order to examine the involvement of LPA-induced carotid body activity on airway resistance in response to bradykinin nebulization, alfaxan-anesthetized animals and the Flexivent system were used. These experiments were performed with a number of acute interventions affecting the proposed pathway, including vagotomy, carotid body denervation, and TRPV1 and/or LPA receptor blockade. Prior to bradykinin, these interventions had no effect on airway resistance (Holm-S̆idák post hoc test comparing asthma control vs any manipulation group: p>0.06) and as expected, bradykinin had no effect on non-asthmatic lungs (p>0.3). However, the acute bronchoconstriction induced by bradykinin in asthmatic lungs was diminished by at least 60% with all interventions (FIG. 4B). The loss of bradykinin-induced bronchoconstriction also occurred in chronic carotid body denervated, but not sham rats (data not shown).
# Brown Norway rats (80-120 g) were sensitized to ovalbumin (1 mg) with pertussis toxin (0.5 ng) and aluminum hydroxide as adjuvant (0.15 g) dissolved in saline (1 ml ip; OVA sensitized), or saline (1 ml ip; Naïve) for three consecutive days (Days 1, 2, and 3) and challenged with aerosolized 5% ovalbumin (OVA, dissolved in 0.9% saline) or saline (Naïve) on days 15, 18 and 21 for 10 min. All anaesthetized experiments conducted on OVA and Naïve rats were conducted ˜7 days (day 28) following the last aerosol exposure. […]
# OVA Cohort 1 (n=26): To determine the effect of bradykinin and OVA-sensitization on airway resistance (RL) OVA-sensitization (day 28) and naïve rats were anesthetized with isoflurane (5%, balance O2) and instrumented for surgery. […] Data were analyzed with two-way repeated measures ANOVA (time×group). […] Airway mechanics were measured in response to bradykinin nebulizations (as in Cohort 1). Heart rate was attained from the blood pressure waveform, SaO2 was monitored from a pulse oximeter (Kent Scientific, Torrington Conn.) and blood gases were analyzed from 0.1 ml arterial samples drawn before and after bradykinin with a blood gas analyzer (Element POC, Heska Barrie, ON). […]
# carotid body [2] = test: in situ dual-perfused preparation: phrenic and vagal nerve discharge after LPA to the carotid body circulation; design: species or system Sprague-Dawley rats; settings: carotid bodies intact
# naïve Brown Norway rats = test: airway resistance after intravenous bolus in naïve anesthetized ventilated rats (Flexivent); format: in vivo; settings: naïve rats with intact CSN; 0.5 ml bolus, 5 μM LPA or 6 μM NaCN
# glomus cells = test: Fura 2 calcium imaging of carotid body type I (glomus) cells; format: cell-based, Sprague-Dawley rats; settings: LPA 5 μM
# Experimental: Sprague-Dawley rats (80-150 g, P21-28) were anaesthetised with isoflurane (3-5% in O2) and carotid bodies were harvested and digested in 0.4 mg ml^−1 collagenase type I (Worthington Biochemical Corporation, Lakewood, N.J.) and 0.2 mg ml^−1 trypsin type I (Sigma-Aldrich, St. Catherines, QC) in DPBS enzyme solution with low CaCl2) (86 μM) and MgCl2 (350 μM), for 20 min at 37° C. followed by dissociation with forceps and incubated for an additional 7 min. The tissue was centrifuged (115 g) for 3 min, supernatant removed and the pellet re-suspended in Ham's F12 (Sigma-Aldrich, St. Catherines, QC) supplemented with 10% heat inactivated fetal bovine serum (Biowest, San Marcos, Tex.). Cells were released by trituration with fire polished silanised Pasteur pipettes (Sigma-Aldrich, St. Catherines, QC). […]
# Type I cells were loaded with 5 μM FURA-2AM (Invitrogen, Carlsbad Calif.) in serum free Ham's F12 nutrient media for 30 min at room temperature in humidified 5% CO2, 10% O2, before being transferred to FURA-2AM-free media in the same conditions for 20 min. […] The FURA-2 loaded cells were excited by 50 ms exposures to 340/380 nm light using a Lambda 10-3 filter wheel every 5 s and emitted light was recorded at 510 nm using a Coolsnap HQ2 CCD camera (Photometrics, Tucson Ariz.). […]
# asthmatic rats = test: airway resistance after nebulized LPA in asthmatic rats (Cohort 5); format: in vivo, rat; settings: nebulized LPA 5 μM
Compound,reduction of 5 μM LPA-mediated carotid sinus nerve excitation (carotid body [1]),"LPA response remaining after BrP-LPA or Ki16425 blockade, on subsequent application of AMG9810 (carotid body [1]; AMG9810 10 μM added after LPAr blockade (dual block), LPA 5 μM)",effect on bradykinin-induced increase in RL compared to OVA (OVA-sensitized rats),effect of LPAr blockade on carotid sinus nerve response to LPA (5 μM) (carotid body [1]),en bloc carotid body's response to LPA blocked (carotid body [1]),"phrenic nerve burst amplitude (carotid body [2]; LPA 5 μM delivered to the CB circulation, baseline 1±0.5)","phrenic nerve burst rate (carotid body [2]; LPA 5 μM delivered to the CB circulation, baseline 1.2±0.8)",phrenic and vagal nerve efferent discharge (carotid body [2]; bolus of 5 μM LPA),airway resistance (naïve Brown Norway rats),intracellular calcium in glomus cells (glomus cells),immediate effect of nebulized LPA on airway resistance (asthmatic rats),airway resistance after 30 min of nebulized LPA (asthmatic rats; abolished by carotid body denervation)
"CC(C)(C)c1ccc(/C=C/C(=O)Nc2ccc3c(c2)OCCO3)cc1 [AMG9810, (2E)-N-(2,3-Dihydro-1,4-benzodioxin-6-yl)-3-[4-(1,1-dimethylethyl)phenyl]-2-propenamide]",41±6%,blocks the LPA response; also recorded: almost abolished,abolished the effects of bradykinin,–,–,–,–,–,–,–,–,–
"Cc1noc(-c2ccc(CSCCC(=O)O)cc2)c1NC(=O)OC(C)c1ccccc1Cl (stereo not drawn) [Ki16425, 3-(4-[4-([1-(2-chlorophenyl)ethoxy]carbonylamino)-3-methyl-5-isoxazolyl]benzylsulfanyl) propanoic acid]",61±9%,–,abolished the effects of bradykinin,diminishes the response to LPA,Approximately 70%,–,–,–,–,–,–,–
Oleoyl-Lysophosphatidic acid [LPA],–,–,–,–,–,2.5±0.5 normalized units,20.8±2.9 burst·min^−1,increases,increased airway resistance,increased intracellular calcium release,no immediate effect,increase in airway resistance
"CCCCCCCCCCCCCCCC(=O)OC[C@@H](O)CC(Br)P(=O)(O)O (stereo partly drawn) [BrP-LPA, [(3S)-1-bromo-4-hexadecanoyloxy-3-hydroxybutyl]phosphonic acid]",70±3%,–,abolished the effects of bradykinin,diminishes the response to LPA,Approximately 70%,–,–,–,–,–,–,–
